Read-outs that look alike come from different tables or passages of the source.
Biological target: T1, RiSLM (Rhizophagus irregularis, UniProt U9TZV5)
T1 construct: gene GLOIN_2v1561425; without signal peptide; single LysM domain; expressed in E. coli ORIGAMI from pET-SUMO, SUMO tag removed by ULP-1; c; 7 kDa (faint 14 and 21 kDa bands, possible oligomers); NT.115 RED dye label
Assay: microscale thermophoresis
Type: binding
Conditions: dye-labelled protein 20 nM

[1] = 50 mM Tris pH 7.4, 10 mM MgCl2, 150 mM NaCl, 0.05% Tween 20, 22 °C

T1 sequence (U9TZV5 entry or part of it): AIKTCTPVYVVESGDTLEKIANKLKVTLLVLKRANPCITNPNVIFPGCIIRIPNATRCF

Compound	Kd [1]	further results
CC(=O)N[C@H]1[C@H](O[C@H]2[C@H](O)[C@@H](NC(C)=O)C(O)O[C@@H]2CO)O[C@H](CO)[C@@H](O[C@@H]2O[C@H](CO)[C@@H](O[C@@H]3O[C@H](CO)[C@@H](O)[C@H](O)[C@H]3NC(C)=O)[C@H](O)[C@H]2NC(C)=O)[C@@H]1O (some centres unmarked) [CO4, chitotetraose]	37.1 ± 1.4 µM	
CC(=O)N[C@H]1[C@H](O[C@H]2[C@H](O)[C@@H](NC(C)=O)[C@H](O[C@H]3[C@H](O)[C@@H](NC(C)=O)C(O)O[C@@H]3CO)O[C@@H]2CO)O[C@H](CO)[C@@H](O[C@@H]2O[C@H](CO)[C@@H](O[C@@H]3O[C@H](CO)[C@@H](O)[C@H](O)[C@H]3NC(C)=O)[C@H](O)[C@H]2NC(C)=O)[C@@H]1O (some centres unmarked) [CO5]	59.4 ± 2.1 µM	
CC(=O)N[C@H]1[C@H](O[C@H]2[C@H](O)[C@@H](NC(C)=O)[C@H](O[C@H]3[C@H](O)[C@@H](NC(C)=O)[C@H](O[C@H]4[C@H](O)[C@@H](NC(C)=O)C(O)O[C@@H]4CO)O[C@@H]3CO)O[C@@H]2CO)O[C@H](CO)[C@@H](O[C@@H]2O[C@H](CO)[C@@H](O[C@@H]3O[C@H](CO)[C@@H](O[C@@H]4O[C@H](CO)[C@@H](O)[C@H](O)[C@H]4NC(C)=O)[C@H](O)[C@H]3NC(C)=O)[C@H](O)[C@H]2NC(C)=O)[C@@H]1O (some centres unmarked) [CO7, chitoheptaose]	8.8 ± 1.2 µM	
LCO-IV(C18:1)		Kd (25 mM sodium cacodylate pH 6.0, 1 mM MgCl2, 1 mM CaCl2, 250 mM sucrose, 0.175% Fos-choline-10, 0.5% ethanol, 22 °C, single binding event, read-out: K d): ~0.24 µM
LCO-IV(C18:1, S)		Kd (25 mM sodium cacodylate pH 6.0, 1 mM MgCl2, 1 mM CaCl2, 250 mM sucrose, 0.175% Fos-choline-10, 0.5% ethanol, 22 °C, first (high-affinity) of two binding events, read-out: K d): ~0.015 µM

— publication PMC6916333, “A lysin motif effector subverts chitin‐triggered immunity to facilitate arbuscular mycorrhizal symbiosis” (The New Phytologist, 2019)
